Reference: US4973576A, “Bisphophonic acid derivatives and pharmaceutical compositions containing the same” (Yamanouchi Pharmaceutical Co., Ltd., priority 1987, dated 1990)
“And” between values parts separate entries of the source, which are not always exact repeats. Equal entries are not always repeated.

Assays:
adjuvant arthritis [1] = test: Experiment (3)-I: therapeutic effect on adjuvant arthritis in rats; assay type: in vivo, male Lewis rats
Description: (§1) Specifically, for investigation of the anti-arthritic effect, experimental models of adjuvant arthritis which is resemble to rheumatoid arthritis in human were used in two test methods. In one method to test the therapeutic effect of the compounds, the compounds to be tested were administered to the animals already having the adjuvant arthritis. In the other method to test the prophylactic effect of the compounds, these were administered after the adjuvant administration, and the expression and progress of the resulting arthritis, if any, was observed.
0.1 ml of a suspension of dry dead cells of Mycobacterium butyricum as suspended in liquid paraffin in a proportion of 6 mg/ml was subcutaneously injected to male Lewis rats (7-week) in the tail. After 17 or 18 days, the thickness of the both hind paws was measured. One group comprising six rats in which the arthritis was noticeably observed was isolated. After the grouping day, the compound to be tested was subcutaneously or orally administered once a day for 14 days to the rats. Next day after the last administration, the thickness of the soles of the both hind legs was again measured.
(§2) For the Experiments (3)-I and (3)-II, the compounds of the present invention were dissolved, using sodium hydroxide and hydrochloric acid in physiological saline (pH 7.4), for subcutaneous administration, in such amount that the dose amounted to 2 ml/kg, and for oral administration, in distilled water (pH 7.4) so that the dose amounted to 5 ml/kg; and indometacin (as comparative drug) was suspended in 0.5% methyl cellulose solution so that the dose amounted to 5 ml/kg. Each rat was weighed at the first day of starting the administration of the compound to be tested and at the last day of the administration of the compound, and the difference of the weight there between (ΔB.W.) was obtained.
(§3) The results for each group were expressed in terms of mean ±S.E. (standard error) and comparison was made among the groups by testing by one-way analysis of variance. The significance level was taken at 5%.

adjuvant arthritis [2] = test: Experiment (3)-II: prophylactic effect on adjuvant arthritis in rats; assay type: in vivo, male Lewis rats; conditions: for Thickness of Paw, Left: adjuvant-injected paw; for Thickness of Paw, Right: opposite paw
Description: as §1
0.05 ml of the suspension of dry dead bacilli of Mycobacterium butyricum as suspended in liquid paraffin in a proportion of 6 mg/ml was subcutaneously injected to male Lewis rats (6 to 7-week) in the left hind paw. After the adjuvant injection, the compound to be tested was administered to the rats once a day for 21 days. Next day after the last administration, the thickness of the both hind paws of the rats was measured.
as §2, §3

[3] = test system: hypercalcemia induced by administration of parathyroid hormone (PTH); test: Inhibitory effect on hypercalcemia induced by PTH in rats (serum Ca++); assay type: in vivo, male Wistar rats; conditions: mean ± S.E.
Description: Rats of hypercalcemia induced by administration of parathyroid hormone (hereinafter referred to as "PTH") were used, and the decrement of the serum calcium amount by administration of the compound was measured.
30 μg/kg of human 1-34 PTH (manufactured by Peptide Laboratory) which was dissolved in a 0.1% BSA (bovine serum albumin)-containing physiological saline (content of the PTH is 6 μg/ml) was intravenously injected in an amount of 30 μg/kg (5 ml/kg as the solution) to 5-week male Wistar rats which had been fasting for 20 hours. Only 0.1% BSA-containing physiological saline was injected to the normal control group in the same manner. 45 minutes after the PTH injection, the rats were etherized and then subjected to celiotomy, whereby the blood was collected from the abdominal cava with a vacuum blood-collecting tube. The blood collected was immediately centrifuged by 3000 rpm, at 4° C. for 10 minutes to isolate the serum. The ionized calcium (Ca^++) concentration in the serum was immediately measured with a Ca^++ meter (Sera 250, manufactured by Horiba Manufacturing Co.).
The compounds of the present invention were dissolved using sodium hydroxide and hydrochloric acid, in physiological saline (pH 7.4), for subcutaneous administration, in such amounts that the dose amounted to 2 ml/kg, and for oral administration, in distilled water (pH 7.4) so that the dose amounted to 5 ml/kg. They were administered 24 or 72 hours before the PTH injection. A physiological saline or a distilled water was administered to the normal control group and the control group, in the same manner. Salmon calcitonin (SCT, manufactured by Armour Co.) was dissolved in physiological saline so that the dose amounted to 2 ml/kg, and then subcutaneously administered 30 minutes before the PTH injection.
The results for each group were expressed in terms of mean±S.E. (standard error) and comparison was made among the groups by testing by one-way analysis of variance. The significance level was taken at 5%.

[4] = test system: immobilization-induced atrophy of bone; test: Inhibition of bone resorption: immobilization-induced (neurectomy) atrophy of bone in rats; assay type: in vivo, Wistar rats; conditions: for Left humerus Ashed weight / Left humerus Ashed weight / Dry weight / Left humerus Dry weight: 2 weeks; for Difference of Bone Ash Content (b): nontreated minus treated humerus ashed weight; for Difference of Bone Weight (a): nontreated minus treated humerus dry weight
[5] = Acute toxicity test in rats; assay type: in vivo; conditions: sc, 10 mg/kg/day for continuous two weeks
Description: The compound of Manufacture Example 1 was subcutaneously injected to rats in an amount of 10 mg/kg/day for continuous two weeks, and no rats died.

[6] = po, 1 mg/kg once a day 14 days, 1 mg/kg
[7] = po, 10 mg/kg once a day 14 days
[8] = po, 30 mg/kg once a day 14 days
[9] = po, 100 mg/kg once a day 14 days, 100 mg/kg
[10] = sc, 0.1 mg/kg once a day 14 days
[11] = sc, 0.3 mg/kg once a day 14 days
[12] = sc, 1.0 mg/kg once a day 14 days
[13] = sc, 3.0 mg/kg once a day 14 days
[14] = sc, 10 mg/kg once a day 14 days
[15] = sc, 0.1 mg/kg once a day 21 days
[16] = sc, 0.3 mg/kg once a day 21 days
[17] = sc, 1.0 mg/kg once a day 21 days

COc1ccc2c(c1)c(CC(=O)O)c(C)n2C(=O)c1ccc(Cl)cc1 [Indometacin, reference compound]
Thickness of Paw (average of right and left paws) (adjuvant arthritis [1]; [6]): 956 ± 32 × 0.01 mm and 1044 ± 46 × 0.01 mm and 931 ± 26 × 0.01 mm
ΔB.W. (adjuvant arthritis [1]; [6]): 67 ± 4 g and 51 ± 4 g and 58.2 ± 1.9 g
ΔB.W. (adjuvant arthritis [2]; po, 1 mg/kg once a day 21 days): 261 ± 7 g
Thickness of Paw, Left (adjuvant arthritis [2]; po, 1 mg/kg once a day 21 days): 1096 ± 41 × 0.01 mm
Thickness of Paw, Right (adjuvant arthritis [2]; po, 1 mg/kg once a day 21 days): 1028 ± 47 × 0.01 mm

Cc1cc(NC(P(=O)(O)O)P(=O)(O)O)no1 [Manufacture Example 1, [(5-methyl-3-isoxazolyl)amino]methylene-bis(phosphonic acid)]
Thickness of Paw (average of right and left paws) (adjuvant arthritis [1]; [7]): 1435 ± 49 × 0.01 mm
ΔB.W. (adjuvant arthritis [1]; [7]): 23.3 ± 0.9 g
Thickness of Paw (average of right and left paws) (adjuvant arthritis [1]; [8]): 1296 ± 45 × 0.01 mm
ΔB.W. (adjuvant arthritis [1]; [8]): 32.8 ± 1.7 g
Thickness of Paw (average of right and left paws) (adjuvant arthritis [1]; [9]): 1131 ± 36 × 0.01 mm and 1083 ± 36 × 0.01 mm
ΔB.W. (adjuvant arthritis [1]; [9]): 50 ± 3 g and 43.3 ± 2.0 g
Thickness of Paw (average of right and left paws) (adjuvant arthritis [1]; [10]): 1258 ± 31 × 0.01 mm
ΔB.W. (adjuvant arthritis [1]; [10]): 40 ± 2 g
Thickness of Paw (average of right and left paws) (adjuvant arthritis [1]; [11]): 1102 ± 36 × 0.01 mm
ΔB.W. (adjuvant arthritis [1]; [11]): 50 ± 2 g
Thickness of Paw (average of right and left paws) (adjuvant arthritis [1]; [12]): 956 ± 36 × 0.01 mm
ΔB.W. (adjuvant arthritis [1]; [12]): 56 ± 4 g
Thickness of Paw (average of right and left paws) (adjuvant arthritis [1]; [13]): 974 ± 32 × 0.01 mm
ΔB.W. (adjuvant arthritis [1]; [13]): 56 ± 1 g
Serum Ca++ ([3]; oral, 30 mg/kg, 72 hours before PTH injection): 1.48 ± 0.01 m mole/liter
Serum Ca++ ([3]; oral, 100 mg/kg, 24 hours before PTH injection): 1.44 ± 0.02 m mole/liter
Serum Ca++ ([3]; oral, 100 mg/kg, 72 hours before PTH injection): 1.16 ± 0.03 m mole/liter
Serum Ca++ ([3]; oral, 300 mg/kg, 24 hours before PTH injection): 1.41 ± 0.01 m mole/liter
Serum Ca++ ([3]; sc, 0.3 mg/kg, 24 hours before PTH injection): 1.43 ± 0.02 m mole/liter
Serum Ca++ ([3]; sc, 1.0 mg/kg, 24 hours before PTH injection): 1.40 ± 0.01 m mole/liter
Serum Ca++ ([3]; sc, 3.0 mg/kg, 24 hours before PTH injection): 1.36 ± 0.02 m mole/liter
Left humerus Ashed weight ([4]; oral, 10 mg/kg): 54.9 ± 1.3 mg
Left humerus Ashed weight / Dry weight ([4]; oral, 10 mg/kg): 53.4 ± 0.3%
Left humerus Dry weight ([4]; oral, 10 mg/kg): 102.8 ± 2.2 mg
Left humerus Ashed weight ([4]; oral, 30 mg/kg): 61.0 ± 1.0 mg
Left humerus Ashed weight / Dry weight ([4]; oral, 30 mg/kg): 54.4 ± 0.3%
Left humerus Dry weight ([4]; oral, 30 mg/kg): 112.1 ± 1.4 mg
Left humerus Ashed weight ([4]; oral, 100 mg/kg): 68.9 ± 1.3 mg
Left humerus Ashed weight / Dry weight ([4]; oral, 100 mg/kg): 55.6 ± 0.2%
Left humerus Dry weight ([4]; oral, 100 mg/kg): 123.9 ± 2.3 mg
Left humerus Ashed weight ([4]; sc, 0.1 mg/kg): 64.9 ± 1.2 mg
Left humerus Ashed weight / Dry weight ([4]; sc, 0.1 mg/kg): 56.9 ± 0.1%
Left humerus Dry weight ([4]; sc, 0.1 mg/kg): 113.9 ± 2.0 mg
Left humerus Ashed weight ([4]; sc, 0.3 mg/kg): 65.4 ± 1.6 mg
Left humerus Ashed weight / Dry weight ([4]; sc, 0.3 mg/kg): 57.2 ± 0.3%
Left humerus Dry weight ([4]; sc, 0.3 mg/kg): 114.4 ± 2.6 mg
Left humerus Ashed weight ([4]; sc, 1.0 mg/kg): 70.1 ± 1.1 mg
Left humerus Ashed weight / Dry weight ([4]; sc, 1.0 mg/kg): 57.8 ± 0.4%
Left humerus Dry weight ([4]; sc, 1.0 mg/kg): 121.3 ± 2.1 mg
Difference of Bone Ash Content (b) ([4]; sc, 3 mg/kg once a day 14 days): 4.8 ± 0.5 mg
Difference of Bone Weight (a) ([4]; sc, 3 mg/kg once a day 14 days): 8.0 ± 1.0 mg
Difference of Bone Ash Content (b) [4, 14]: 1.7 ± 0.5 mg
Difference of Bone Weight (a) [4, 14]: 3.2 ± 0.7 mg
ΔB.W. (adjuvant arthritis [2]; [15]): 238 ± 2 g
Thickness of Paw, Left (adjuvant arthritis [2]; [15]): 1277 ± 19 × 0.01 mm
Thickness of Paw, Right (adjuvant arthritis [2]; [15]): 1279 ± 27 × 0.01 mm
ΔB.W. (adjuvant arthritis [2]; [16]): 239 ± 2 g
Thickness of Paw, Left (adjuvant arthritis [2]; [16]): 1158 ± 12 × 0.01 mm
Thickness of Paw, Right (adjuvant arthritis [2]; [16]): 1107 ± 25 × 0.01 mm
ΔB.W. (adjuvant arthritis [2]; [17]): 233 ± 3 g
Thickness of Paw, Left (adjuvant arthritis [2]; [17]): 1174 ± 14 × 0.01 mm
Thickness of Paw, Right (adjuvant arthritis [2]; [17]): 1110 ± 28 × 0.01 mm
mortality [5]: no rats died
